Source: US7173007B1, “Therapy for microbial infections” (The Regents of the University of California, priority 2003, dated 2007)

Columns and labels:
MRSA (ATCC 33591) = assay: Radial diffusion (inhibition zone) assay; format: cell-based, Staphylococcus aureus; details: MRSA (Gram-positive)
Description: (§1) FIGS. 3A–C show Growth inhibition of MRSA, E. coli, and P. aeruginosa by cathelin-like protein. (a) Inhibition zone ssay on tryptone/agarose plates with MRSA. Clear circles show lack of bacterial growth. Lanes 1, 3, 5, bottom row: cathelin-like protein at […], 16 μM, respectively. Lane 2, top row:[…] of His-tagged cathelin-like protein before cleavage. Lane 4, top: enterokinase enzyme alone. All assays were performed in duplicate and repeated three times. (b), (c) CFU assay: growth inhibition of (b) MRSA and (c) E. coli, cultured in 10 mM phosphate and 1% TSB (pH 7.4) and then supplemented with different concentrations of human cathelin-like protein.
Antimicrobial assays. E. coli (ATCC 25922), Pseudomonas aeruginosa (ATCC 8427), Salmonella typhimurium (ATCC 13311), Proteus vulgaris (ATCC 8427), Staphylococcus epidermidis (ATCC 12228), and MRSA (ATCC 33591) isolates were maintained on trypticase soy broth (TSB) agar plates. Individual colonies were selected and cultured overnight in TSB, subcultured once at 1:50 in fresh TSB, and then grown to stationary phase for use in all experiments. The radial diffusion assay was performed in 0.5% agarose and 0.75% tryptone brought to ebullition and cooled to 43° C., and then mixed with […] of bacterial suspension and poured into a 10 cm Petri dish. […]

E. coli (ATCC 25922) = assay: Radial diffusion (inhibition zone) assay; format: cell-based
Description: (§2) Antimicrobial assays. E. coli (ATCC 25922), Pseudomonas aeruginosa (ATCC 8427), Salmonella typhimurium (ATCC 13311), Proteus vulgaris (ATCC 8427), Staphylococcus epidermidis (ATCC 12228), and MRSA (ATCC 33591) isolates were maintained on trypticase soy broth (TSB) agar plates. Individual colonies were selected and cultured overnight in TSB, subcultured once at 1:50 in fresh TSB, and then grown to stationary phase for use in all experiments. The radial diffusion assay was performed in 0.5% agarose and 0.75% tryptone brought to ebullition and cooled to 43° C., and then mixed with […] of bacterial suspension and poured into a 10 cm Petri dish. A series of small wells (diameter, 3 mm) were punched in the plate after the agarose solidified. Two microliters of test samples were applied in each well. Plates were incubated at 37° C. overnight to allow visible growth of bacteria. Antibacterial activity was indicated by the clear zone (no bacterial growth) around the well.
(§3) Antimicrobial activity of recombinant cathelin-like protein. Recombinant cathelicidins were tested for antimicrobial activity using a standard radial diffusion assay. Different concentrations of the cathelin-like protein were loaded into wells on assay plates containing Gram-positive MRSA, S. epidermidis, and strains of the Gram-negative bacterial species E. coli, S. enteritidis, P. vulgaris, and P. aeruginosa. […] Similarly, cathelin-like protein inhibited growth of S. epidermidis ([…]) but not S. enteritidis or P. vulgaris.

[1] = system: Pseudomonas aeruginosa (ATCC 8427); assay: Radial diffusion (inhibition zone) assay; format: cell-based; details: P. aeruginosa
Description: as §2, §3

S. enteritidis = assay: Radial diffusion (inhibition zone) assay; format: cell-based
Description: as §2, §3

[2] = system: Staphylococcus epidermidis (ATCC 12228); assay: Radial diffusion (inhibition zone) assay; format: cell-based; details: S. epidermidis (Gram-positive)
Description: as §2, §3

E. coli = assay: Colony-forming assay (CFU), liquid phase; format: cell-based; parameters: unit of the concentration uncertain; details: 3 (unit uncertain), 10 mM phosphate, 1% TSB, pH 7.4
Description: as §1
(§4) The colony-forming assay (CFU) was performed. Bacterial cultures (E. coli or MRSA) were collected at the logarithmic phase of growth in TSB, washed twice with phosphate-buffered saline, pH 7.4, and diluted to 104 CFU per ml in 10 mM phosphate buffer, pH 7.4, Na2HPO4/NaH2PO4-1% TSB (g per 1). Forty-five microliters of bacterial suspension were mixed with […] of H2O (control) or with […] of different concentrations of cathelin-like proteins, and the mixture was incubated at 37° C. Every 30 min, a […] aliquot of the reaction mixture was plated directly onto a TSB agar plate and then incubated at 37° C. overnight for enumeration of CFU. Data are reported as growth index=final CFU/CFU in initial inoculum. […]

MRSA = assay: Colony-forming assay (CFU), liquid phase; format: cell-based, Staphylococcus aureus; details: 10 mM phosphate, 1% TSB, pH 7.4
Description: as §1, §4

Substance	growth inhibition (MRSA (ATCC 33591))	growth inhibition (E. coli (ATCC 25922))	growth inhibition [1]	growth inhibition (S. enteritidis)	growth inhibition [2]	effect on growth (CFU) (E. coli)	effect on growth (CFU) (MRSA)
CRAMP [reference compound]	inactive	highly active	highly active	highly active	inactive		
LL-37: C-terminal 37 amino acid mature antimicrobial peptide of human hCAP18 (LLGDFFRKSKEKIGKEFKRIVQRIKDFLRNLVPRTES) [reference compound]	inactive	highly active	highly active	highly active	inactive	bactericidal	no effect
